The test system of series [1] is H1N1N09. As to the kind of experiment: Influenza virucidal assay. Type of series: cell-based, Influenza A/Netherlands/602/2009 (H1N1).
The subject of series [2] is HSV-2. Also on record: method as in Zhu et al., 2024 (citation number not given). The settings on record: earlier paper of the authors; ref Zhu et al., 2024 (citation number not given); cited from earlier work.
Series [3] relates to H1N1 clinical.
Series [4] deals with H1N1N09. As to the kind of experiment: Influenza inhibition assay (ICC on MDCK cells). The note with it: Influenza A virus, dose–response. Format: cell-based, Influenza A/Netherlands/602/2009 (H1N1).
Series [5] in a line: CMC assay (conductivity method). Type of series: physicochemical. The note with it: in water. Here is the method: The CMC of antiviral compounds was measured by the conductivity method. Antiviral compounds were diluted into water at different concentrations, and the conductivity (μS/cm) was measured at each concentration with a conductivity meter (Mettler Toledo, Switzerland). The CMC was identified as the point on the conductivity-concentration plot where the slope changed.

In series [6] the test system is HSV-2. As to the kind of experiment: Growth of viruses in the presence of compounds (posttreatment), HSV-2. Type of series: cell-based, herpes simplex virus type 2. The note with it: for IC50: Human alphaherpesvirus 2, Vero, posttreatment condition, Vero cells.
Series [7] relates to H1N1 clinical. The series can be described thus: Influenza inhibition assay (ICC on MDCK cells). Format: cell-based. The note with it: Influenza A virus, dose–response.
A short description of series [8]: Partition coefficient octanol/water (UV-vis). Format: physicochemical. Here is the method: UV–vis spectroscopy was employed first to determine the correct dilution of all compounds. The seven compounds in this study were B3C11SO4, B3C11SO3, B3C6SO3, B3C6SO4, C4C11SO4, C4C11SO3, and C4C3SO3. The protocol is the same for all the compounds: in the beginning, all compounds were dissolved in water at a concentration of 1 mg/mL. The solution was put into a quartz cuvette and then into the UV–vis spectrometer, where the absorbance from wavelengths 600 to 190 nm was investigated. All of the samples presented a peak in absorbance around 200 nm. The samples were diluted further until the absorbance peak reached values near 0.90.
A biphasic solution composed of 1.5 mL of a water solution of antiviral +1.5 mL of octanol was thoroughly mixed for 60 min. After the mixing, the two phases were separated by centrifugation for 1 min using a benchtop centrifuge at 5000 rpm. The water phase saturated in octanol and the octanol phase saturated with water were extracted and characterized by UV–vis spectrometry.
The partition coefficient (log P) was then calculated using formula : logP=log(Absorbanceofoctanolphase/Absorbanceofwaterphase) 1

Series [9] relates to HSV-2. Details: method as in Zhu et al., 2024 (citation number not given). The note with it: earlier paper of the authors on benzene-core MEIs; ref Zhu et al., 2024 (citation number not given); read-out: IC50 against HSV-2; cited from earlier work.

Like-named read-outs stand apart in the source and are kept apart here.

By IC50 is commonly meant the concentration at which inhibition is half-maximal. By logP is commonly meant a log measure of how a compound divides between an organic and an aqueous phase. Lower therefore signals lower lipophilicity. `O=S(=O)(O)CCCCCCCCCCCSCc1cc(CSCCCCCCCCCCCS(=O)(=O)O)cc(CSCCCCCCCCCCCS(=O)(=O)O)c1` [B3C11SO3]: the “Virucidal activity, H1N1N09” value in the series on H1N1N09 [1] was “S”. For the same compound, in the series on HSV-2 [2], the “inhibition mechanism with HSV-2” value is listed as “virustatic”. The “Virucidal activity, H1N1 clinical” value with H1N1 clinical [3] is recorded as “S”. The “Virucidal activity, FluB” value with FluB is on record as “S”. Further, the half-maximal inhibitory concentration (IC50) was 35.2 ± 4.7 µM in the series on H1N1N09 [4], 10.3 ± 1.17 µM with HSV-2 [6] and 4.2 ± 0.36 µM with H1N1 clinical [7]. The “Virucidal activity, V-1” value in the series on HSV-1 was “S”. Besides, the CMC in [5] turned out to be 497 ± 20.9 µM. The “fold reduction in IC50, posttreatment vs pretreatment” value with HSV-2 [6] (HSV-2) is reported as “approximately 9 fold”. The “Virucidal activity, H3N2” value in the series with H3N2 was “S”. In addition, the log partition coefficient (logP) in [8] is -2.43.
For `O=S(=O)(O)OCCCCCCCCCCCSCc1cc(CSCCCCCCCCCCCOS(=O)(=O)O)cc(CSCCCCCCCCCCCOS(=O)(=O)O)c1` [B3C11SO4], the IC50 is 26.2 µM in the series with HSV-2 [9], 0.9 ± 0.05 µM in the series on H1N1N09 [4], 18 ± 1.13 µM in the series on HSV-2 [6] and 0.7 ± 0.04 µM in the series on H1N1 clinical [7]. Moreover, in the series on HSV-2 [2], the “inhibition mechanism with HSV-2” value is reported as “virucidal”. The compound also displayed a CMC in series [5] of 556 ± 35.1 µM. In series [8], this compound showed a logP of -2.2.
For the compound `O=S(=O)(O)CCCCCCCCCCCSCc1cc2c(cc1CSCCCCCCCCCCCS(=O)(=O)O)OCCOCCOc1cc(CSCCCCCCCCCCCS(=O)(=O)O)c(CSCCCCCCCCCCCS(=O)(=O)O)cc1OCCOCCO2` [C4C11SO3], the IC50 with H1N1N09 [4] turned out to be 15.8 ± 3.1 µM; in the series with HSV-2 [6], 12.3 ± 0.76 µM; in the series with H1N1 clinical [7], 10.4 ± 3.34 µM. Further, the CMC in series [5] was found to be 237 ± 17.1 µM. The compound further returned a log partition coefficient (logP) in [8] of -2.25.
In the case of `O=S(=O)(O)OCCCCCCCCCCCSCc1cc2c(cc1CSCCCCCCCCCCCOS(=O)(=O)O)OCCOCCOc1cc(CSCCCCCCCCCCCOS(=O)(=O)O)c(CSCCCCCCCCCCCOS(=O)(=O)O)cc1OCCOCCO2` [C4C11SO4], the IC50 in the series with H1N1N09 [4] is 80.9 ± 13.7 µM; with HSV-2 [6] it was 4.8 ± 0.7 µM; with H1N1 clinical [7], more than 202 µM. In addition, the CMC in series [5] turned out to be 1003 ± 24.6 µM. For the same compound, the logP in [8] was -1.76.

The values are drawn from paper PMC12598866, “A Comparative Study of Virucidal and Virustatic Multivalent Entry Inhibitors” (The Journal of Physical Chemistry. B, 2025).
